Experimental data from publication PMC12598616, “Design and optimization of caspase-1-responsive fluorescent probes for pyroptosis imaging and anti-pyroptosis drug screening” (Chemical Science, 2025).

Tested on: caspase-4
Assay: Selectivity of probes: caspase-4
Assay type: biochemical, human
Settings: caspase-4 2 U/mL, 37 °C, 2 h, λex 510 nm, λem 585 nm
Excerpt: The resin used for SPPS was purchased from GL Biochem (Shanghai, China). Lipopolysaccharide (LPS, L2630), Nigericin and ATP (11140965001) were purchased from Merck (Shanghai, China) and Invitrogen (Shanghai, China), respectively. Cell culture plates were sourced from Wuxi NEST Biotechnology. Recombinant human caspase-1, caspase-3, caspase-4, and caspase-8 were obtained from Abcam and MCE (Shanghai, China). Anti-cleaved caspase-1 antibody, anti-GAPDH antibody, and goat anti-Rabbit/anti-mouse lgG/HRP were purchased from CST (USA) and Beyotime […]
(Shanghai, China). […]
Medical College (ethical approval number ZJCLA-IACUC-20011003). […]
To investigate the sensitivity of the probes for caspase-1, varying concentration of caspase-1 (0, 0.2, 0.4, 0.6, 0.8, 1.0, 1.25, 1.5, 1.75, 2, 2.5, 3 U/mL) were incubated with FPy1 (5 μM), YPy1 (5 μM) and WPy1 (5 μM) respectively in caspase-1 assay buffer (50 mM HEPES, 50 mM NaCl, 0.1 % chaps, 5 % glycerol, 10 mM DTT, 10 mM EDTA) at 37 °C for 2 hours. Fluorescence spectra were recorded using Hitachi F-2700 spectrophotometer with an excitation at 510 nm (Photomultiplier voltage 700 V; Slit widths ex: 10 nm and em =5.0 nm). […] The limit of detection (LoD) was calculated from 3σ/k, in which σ represents the standard deviation of 15 blank measurements. […]
10 nm and em =5.0 nm). The fluorescence intensity of FPy1, YPy1 and WPy1 at 585 nm were plotted separately against […]

–FLTDG– [FPy1, RhoB donor, hNR quencher]
fluorescence response to caspase-4: almost no response

–YVADG– [YPy1, caspase-1-responsive FRET probe with recognition peptide –YVADG–; RhoB donor, hNR quencher]
fluorescence response to caspase-4: almost no response
